Assay [1] has as its system HepG2 cells. Put plainly: lipid ROS (BODIPY 581/591 C11, flow cytometry). To be noted: 24 h, HepG2. It is filed as cell-based, human. As to the method: To detect lipid peroxidation upon treatment with CH004, HepG2 cells or mouse embryonic fibroblasts (MEF) were seeded in 12-well plates with ~ 1.8 × 10^5 cells per well for 24 h. After treatment with the inhibitor for another 24 h, cells were stained with BODIPY® 581/591 C11 (Invitrogen) for 1 h at a final concentration of 2 μM at 37 °C[57]. The cells were then resuspended in an appropriate amount of PBS after being washed once with PBS. Lipid peroxidation, i.e., lipid ROS, was analyzed by detection of the fluorescence using an LSR Fortessa flow cytometer. The data were recorded at 530/30 nm (green fluorescent) and 670/30 nm (red fluorescent) wavelengths after excitation at 488 nm. A minimum of 20000 events was used for the analysis. All the experiments were independently repeated twice in triplicate.
Figure S15. The mode of actions for CH004 in cells. […] Indicated HEK293T stable cell lines were treated with CH004 at a concentration of 10 µM for 24 h, and the cell viability was then measured using the CellTiter96® Aqueous One Solution Cell Proliferation Assay (Promega). Means ± SDs (n=3). (B-C) CH004 or erastin triggers ferroptosis in mouse embryonic fibroblasts (MEF). WT MEF cells were treated with CH004 or erastin at indicated concentrations in the presence or the absence of 500 µM DFO for 24 h before measuring the lipid ROS with 2 μM BODIPY® 581/591 C11 (Materials and methods). […] Erastin at micromolar concentrations were incubated with HepG2 cells for 24 h before measuring the lipid ROS (see above and Materials and methods). […] Means ± SDs (n=3). […] CH004 or erastin at a concentration of 20 µM was incubated with HepG2 cells for 48 h or 72 h in the presence or the absence of 100 µM DFO. The cell viability was accordingly quantified using the CellTiter96® Aqueous One Solution Cell Proliferation Assay (Promega) and the results were shown as percentages of DMSO (control, 100%). Means ± SDs (n=3). All the experiments were independently repeated at least twice and one representative result is present. Table S1 The inhibitory effects of CH004 on purified hCBS, hCSE and hDDC.
On the technique in general: Flow cytometry measures light scatter and fluorescence of single cells or particles in a stream.

Assay [2] deals with rat hemorrhagic shock model. Put plainly: hemorrhagic shock rat model. It is filed as in vivo. As to conditions: 3 mg/kg intraperitoneal. On the procedure:
Fig. 3 The effect of CH004 on the activity of endogenous hCBS in cells. a CH004 dose-dependently elevates the levels of Hcys in HepG2 and HEK293T cells. HepG2 cells or HEK293T cells were incubated with indicated CH004 or DMSO (control) for 12 h. The amount of total Hcys in cells was measured by ELISA using Axis® Homocysteine EIA kit (IBL, AX51301) (“Materials and Methods” section). […] HepG2 cells were treated with indicated DMSO, CH004 or HA for 8 h before the staining with AzMC probe. The amount of the H2S (blue) was quantified and is shown in (c). Bars, 50 μm. Control (CTR), DMSO group (100%). A representative fluorescence image from three independent experiments is shown. […] The total Hcys of the blood samples collected from the anesthetized rats at the 75 min time point (Materials and Methods) were quantified by ELISA (see above). […]
Figure S10. […] The hemorrhagic shock model was constructed by blood withdrawing (BW) from the carotid artery of anesthetized male Sprague-Dawley rats (280-320 g), and the mean arterial blood pressure (MAP) was monitored by an MP30B-CE pressure transducer (BIOPAC, Santa Barbara, CA, USA). […] Then, 15 min later, CH004 (3 mg/kg), PAG (50 mg/kg) or vehicle (2% DMSO in saline) was intraperitoneally administered to the rats, and the MAP was monitored continuously for another 45 min. MAP was continually recorded during the experiments. […]

Turning to `Cn1nc(Cc2ccccc2)nc2c(=O)n(C)c(=O)nc1-2` [CH004, 3-benzyl-1,6-dimethylpyrimido[5,4-e][1,2,4]triazine-5,7(1H,6H)-dione], the “increase of lipid ROS” value in assay [1] (10 μM) is ~ 250%. Also, in assay [1], the “lipid peroxidation (lipid ROS), dose dependence” value is “dose-dependently increased”. Also, the “increase of the level of Hcys in blood” value in assay [2] (75 min time point) is recorded as ~ 2 fold. In addition, in assay [2] (indicator for in vivo CSE inhibition), the “effect on mean arterial pressure (MAP)” value is reported as “does not affect”.

These data come from paper PMC6158189, “A pharmacological probe identifies cystathionine β-synthase as a new negative regulator for ferroptosis” (Cell Death & Disease, 2018).
